Measured values taken from patent US20240246954A1, “COMPOSITIONS AND METHODS FOR INHIBITING KRAS” (TheRas, Inc., priority 2021, published 2024).

Legend:
GppNHp KRAS G12D = GppNHp KRAS G12D (Homo sapiens, UniProt P01116, G12D); assay: SPR binding affinity, GppNHp KRAS G12D; conditions: GppNHp-bound KRAS G12D
[1] = tested on: pERK in GP2d cells (KRAS G12D); assay: Cell-based pERK HTRF assay; conditions: GP2d, 1 h, 60 min incubation
Summary of the method: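 GP2d cells (DMEM, 10% FBS) treated 60 min with compounds in a 9-point half-log series from 1 μM top concentration, 0.25% DMSO. Lysates read for pERK by HTRF (d2/Eu cryptate antibodies) after 4–24 h at room temperature; emission at 615 nm.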

[2] = molecular target: T1, Avi-KRAS G12D/Q25A (1-169) GppNHp/3×FLAG-PI3KCA (157-299) (Homo sapiens, UniProt P01116, G12D/Q25A); assay: HTRF PI3KCA-KRAS G12D/Q25A-GppNHp disruption assay; assay type: biochemical; conditions: 1 h incubation
T1 construct: Avi-KRAS G12D/Q25A (1-169) GppNHp
Summary of the method: (§1)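 Compounds titrated from 100 μM in a 10-point series, incubated with protein mix 1 h at room temperature, then HTRF reagents a further 1 h. Time-resolved fluorescence read (excitation 320 nm, emission 615 nm); activity expressed as percentage of DMSO control.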

GDP KRAS G12D = GDP KRAS G12D (Homo sapiens, UniProt P01116, G12D); assay: SPR binding affinity, GDP KRAS G12D; conditions: GDP-bound KRAS G12D
[3] = molecular target: T2, Avi-KRAS G12D (1-169) GppNHp/RAF1 RBD-3×FLAG (52-151) (Homo sapiens, UniProt P01116, G12D); assay: HTRF Raf1-KRAS G12D-GppNHp disruption assay; assay type: biochemical; conditions: 1 h incubation
T2 construct: Avi-KRAS G12D (1-169) GppNHp
Summary of the method: as §1

T2 sequence (P01116 1-169 isoform P01116-2 G12D limits assumed): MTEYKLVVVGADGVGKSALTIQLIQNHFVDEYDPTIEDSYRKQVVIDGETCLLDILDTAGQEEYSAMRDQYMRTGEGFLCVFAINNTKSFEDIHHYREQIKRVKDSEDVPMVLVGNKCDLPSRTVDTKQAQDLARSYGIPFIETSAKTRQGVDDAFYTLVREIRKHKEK
T1 sequence (P01116 1-169 isoform P01116-2 G12D/Q25A limits assumed): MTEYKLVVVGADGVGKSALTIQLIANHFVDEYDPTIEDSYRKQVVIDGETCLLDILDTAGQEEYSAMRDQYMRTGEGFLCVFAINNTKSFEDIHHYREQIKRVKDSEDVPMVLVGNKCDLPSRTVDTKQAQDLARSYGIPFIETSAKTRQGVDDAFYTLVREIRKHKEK
GppNHp KRAS G12D, sequence (P01116 1-188 isoform P01116-2 G12D): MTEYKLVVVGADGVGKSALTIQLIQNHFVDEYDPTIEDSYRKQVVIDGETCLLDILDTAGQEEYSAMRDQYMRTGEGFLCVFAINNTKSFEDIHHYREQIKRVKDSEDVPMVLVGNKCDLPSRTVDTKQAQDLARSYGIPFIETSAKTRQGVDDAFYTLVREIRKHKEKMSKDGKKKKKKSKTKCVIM
GDP KRAS G12D, sequence (P01116 1-188 isoform P01116-2 G12D): as above

SMILES | Kd (GppNHp KRAS G12D) | IC50 [1] | IC50 [2] | Kd (GDP KRAS G12D) | IC50 [3]
N#Cc1c(N)sc2c(F)ccc(-c3c(Cl)cc4c(N5C[C@H]6CC[C@@H](C5)N6)nc(OC[C@@]56CCCN5C[C@H](F)C6)nc4c3F)c12 [Compound 260, 4-(4-((1R,5S)-3,8-diazabicyclo[3.2.1]octan-3-yl)-6-chloro-8-fluoro-2-(((2R,7aS)-2-fluorotetrahydro-1H-pyrrolizin-7a(5H)-yl)methoxy)quinazolin-7-yl)-2-amino-7-fluorobenzo[b]thiophene-3-carbonitrile] | ≤ 100 nM | ≤ 100 nM | 100 to 1000 nM | ≤ 100 nM | ≤ 100 nM
CN(c1nc(OC[C@@]23CCCN2C[C@H](F)C3)nc2c(F)c(-c3ccc(F)c4sc(N)nc34)c(C(F)(F)F)cc12)[C@H]1CNC[C@H]1F [Compound 290] | 100 to 1000 nM | ≤ 100 nM | 100 to 1000 nM | ≤ 100 nM | 100 to 1000 nM
N#Cc1c(N)sc2c(F)ccc(-c3c(C(F)F)cc4c(N5C[C@H]6CC[C@@H](C5)N6)nc(OC[C@@]56CCCN5C[C@H](F)C6)nc4c3F)c12 [Compound 301, 4-(4-((1R,5S)-3,8-diazabicyclo[3.2.1]octan-3-yl)-6-(difluoromethyl)-8-fluoro-2-(((2R,7aS)-2-fluorotetrahydro-1H-pyrrolizin-7a(5H)-yl)methoxy)quinazolin-7-yl)-2-amino-7-fluorobenzo[b]thiophene-3-carbonitrile] | ≤ 100 nM | ≤ 100 nM | 100 to 1000 nM | ≤ 100 nM | 100 to 1000 nM
